Assay results reported in patent publication US20150141381A1, “TETRACYCLINE COMPOUNDS HAVING TARGET THERAPEUTIC ACTIVITIES” (Paratek Pharmaceuticals, Inc., priority 2001, published 2015).

Assays:
S. aureus RN450 = assay: In Vitro Anti-Bacterial Activity Assay (MIC), gram positive; type: cell-based; conditions: Staphylococcus aureus, RN450, 18 h, gram positive bacteria; read-out: Antibiotic Activity Gram + (MIC)
E. coli mL308 225 = assay: In Vitro Anti-Bacterial Activity Assay (MIC), gram negative; type: cell-based; conditions: Escherichia coli, ML308225, 18 h, gram negative bacteria; read-out: Antibiotic Activity Gram − (MIC)

SMILES | MIC (S. aureus RN450) [µg/mL] | MIC (E. coli mL308 225) [µg/mL]
CN(C)[C@@H]1C(O)=C(C(N)=O)C(=O)[C@@]2(O)C(O)=C3C(=O)c4c(O)ccc(C#CCO)c4C[C@H]3C[C@@H]12 | < 4 | > 4
CC(=O)c1ccc(-c2cc(N(C)C)c3c(c2O)C(=O)C2=C(O)[C@]4(O)C(=O)C(C(N)=O)=C(O)[C@@H](N(C)C)[C@@H]4C[C@@H]2C3)cc1 | < 4 | > 4
CN(C)[C@@H]1C(O)=C(C(N)=O)C(=O)[C@@]2(O)C(O)=C3C(=O)c4c(O)ccc(/C=C/c5ccc(C(F)(F)F)cc5)c4C[C@H]3C[C@@H]12 | < 4 | > 4
COc1cccc(C/C=C\c2ccc(O)c3c2C[C@H]2C[C@H]4[C@H](N(C)C)C(O)=C(C(N)=O)C(=O)[C@@]4(O)C(O)=C2C3=O)c1O | < 4 | < 4
CN(C)[C@@H]1C(O)=C(C(N)=O)C(=O)[C@@]2(O)C(O)=C3C(=O)c4c(O)ccc(CCC(=O)N5CCOCC5)c4C[C@H]3C[C@@H]12 | < 4 | > 4
CN(C)c1cc(C#CC(=O)O)c(O)c2c1C[C@H]1C[C@H]3[C@H](N(C)C)C(O)=C(C(N)=O)C(=O)[C@@]3(O)C(O)=C1C2=O | > 4 | > 4
CCCC/C(Cl)=C/c1ccc(O)c2c1C[C@H]1C[C@H]3[C@H](N(C)C)C(O)=C(C(N)=O)C(=O)[C@@]3(O)C(O)=C1C2=O | < 4 | < 4
CCCc1ccc(O)c2c1C[C@H]1C[C@H]3[C@H](N(C)C)C(O)=C(C(N)=O)C(=O)[C@@]3(O)C(O)=C1C2=O | < 4 | < 4
CN(C)c1cc(C#CCNS(C)(=O)=O)c(O)c2c1C[C@H]1C[C@H]3[C@H](N(C)C)C(O)=C(C(N)=O)C(=O)[C@@]3(O)C(O)=C1C2=O | > 4 | > 4
CN(C)[C@@H]1C(O)=C(C(N)=O)C(=O)[C@@]2(O)C(O)=C3C(=O)c4c(O)ccc(C5CCCC5)c4C[C@H]3C[C@@H]12 | < 4 | < 4
CCCCCCc1ccc(O)c2c1C[C@H]1C[C@H]3[C@H](N(C)C)C(O)=C(C(N)=O)C(=O)[C@@]3(O)C(O)=C1C2=O | < 4 | < 4
COc1cccc(C#Cc2cc(N(C)C)c3c(c2O)C(=O)C2=C(O)[C@]4(O)C(=O)C(C(N)=O)=C(O)[C@@H](N(C)C)[C@@H]4C[C@@H]2C3)c1 | < 4 | < 4
CN(C)c1cc(CCCNS(C)(=O)=O)c(O)c2c1C[C@H]1C[C@H]3[C@H](N(C)C)C(O)=C(C(N)=O)C(=O)[C@@]3(O)C(O)=C1C2=O | > 4 | > 4
CN(C)c1cc(CCc2ccc(F)cc2)c(O)c2c1C[C@H]1C[C@H]3[C@H](N(C)C)C(O)=C(C(N)=O)C(=O)[C@@]3(O)C(O)=C1C2=O | < 4 | < 4
CCCCOC(=O)Nc1cc(N(C)C)c2c(c1O)C(=O)C1=C(O)[C@]3(O)C(=O)C(C(N)=O)=C(O)[C@@H](N(C)C)[C@@H]3C[C@@H]1C2 | < 4 | < 4
CN(C)c1cc(C#CC2=CCCC2)c(O)c2c1C[C@H]1C[C@H]3[C@H](N(C)C)C(O)=C(C(N)=O)C(=O)[C@@]3(O)C(O)=C1C2=O | < 4 | < 4
CCCCC#Cc1cc(N(C)C)c2c(c1O)C(=O)C1=C(O)[C@]3(O)C(=O)C(C(N)=O)=C(O)[C@@H](N(C)C)[C@@H]3C[C@@H]1C2 | < 4 | < 4
CCc1cc(C(C)(C)C)c(O)c2c1C[C@H]1C[C@H]3[C@H](N(C)C)C(O)=C(C(=O)NC(C)(C)C)C(=O)[C@@]3(O)C(O)=C1C2=O | < 4 | > 4
CN(C)[C@@H]1C(O)=C(C(N)=O)C(=O)[C@@]2(O)C(O)=C3C(=O)c4c(O)ccc(-c5ccccc5)c4C[C@H]3C[C@@H]12 | < 4 | < 4
CN(C)[C@@H]1C(O)=C(C(N)=O)C(=O)[C@@]2(O)C(O)=C3C(=O)c4c(O)c(-c5ccc6c(c5)OCO6)cc(-c5ccc6c(c5)OCO6)c4C[C@H]3C[C@@H]12 | < 4 | > 4
CN(C)c1cc(NCc2ccccc2C[C@H]2O[C@@H](CO)[C@@H](O)[C@@H](O)[C@H]2O)c(O)c2c1C[C@H]1C[C@H]3[C@H](N(C)C)C(O)=C(C(N)=O)C(=O)[C@@]3(O)C(O)=C1C2=O | > 4 | > 4
CCCCCC(=O)c1ccc(O)c2c1C[C@H]1C[C@H]3[C@H](N(C)C)C(O)=C(C(N)=O)C(=O)[C@@]3(O)C(O)=C1C2=O | < 4 | < 4
CN(C)c1cc(NCc2ccc(OC(F)(F)F)cc2)c(O)c2c1C[C@H]1C[C@H]3[C@H](N(C)C)C(O)=C(C(N)=O)C(=O)[C@@]3(O)C(O)=C1C2=O | < 4 | > 4
CN(C)c1cc(NCC2CCCCC2)c(O)c2c1C[C@H]1C[C@H]3[C@H](N(C)C)C(O)=C(C(N)=O)C(=O)[C@@]3(O)C(O)=C1C2=O | > 4 | > 4

SMILES | MIC (S. aureus RN450) [µg/mL] | MIC (E. coli mL308 225) [µg/mL]
COCCOC(=O)NCc1cc(N(C)C)c2c(c1O)C(=O)C1=C(O)[C@]3(O)C(=O)C(C(N)=O)=C(O)[C@@H](N(C)C)[C@@H]3C[C@@H]1C2 | < 4 | > 4
CN(C)c1cc(CNC(=O)Nc2ccc3c(c2)OCO3)c(O)c2c1C[C@H]1C[C@H]3[C@H](N(C)C)C(O)=C(C(N)=O)C(=O)[C@@]3(O)C(O)=C1C2=O | < 4 | > 4
CN(C)[C@@H]1C(O)=C(C(N)=O)C(=O)[C@@]2(O)C(O)=C3C(=O)c4c(O)ccc(C#CCCC#Cc5ccc(O)c6c5C[C@@]5(C)C[C@@]7(C)[C@H](N(C)C)C(O)C(C(N)=O)C(=O)[C@@]7(O)C(O)=C5C6=O)c4C[C@@]3(C)C[C@@]12C (stereo partly shown) | > 4 | > 4
COc1ccc(CNCCc2ccccc2)cc1-c1ccc(O)c2c1C[C@H]1C[C@H]3[C@H](N(C)C)C(O)=C(C(N)=O)C(=O)[C@@]3(O)C(O)=C1C2=O | < 4 | < 4
CC#Cc1cc(C#CC)c2c(c1O)C(=O)C1=C(O)[C@]3(O)C(=O)C(C(N)=O)=C(O)[C@@H](N(C)C)[C@@H]3C[C@@H]1C2 | > 4 | > 4
CCOC(=O)CNCc1ccc(OC)c(-c2ccc(O)c3c2C[C@H]2C[C@H]4[C@H](N(C)C)C(O)=C(C(N)=O)C(=O)[C@@]4(O)C(O)=C2C3=O)c1 | < 4 | < 4
CN(C)[C@@H]1C(O)=C(C(N)=O)C(=O)[C@@]2(O)C(O)=C3C(=O)c4c(O)ccc(-c5ccc(C(=O)Cl)c6ccccc56)c4C[C@H]3C[C@@H]12 | < 4 | > 4
Cc1cc(C(C)(C)C)c(O)c2c1C[C@H]1C[C@H]3[C@H](N(C)C)C(O)=C(C(N)=O)C(=O)[C@@]3(O)C(O)=C1C2=O | < 4 | > 4
CC(C)COC(=O)NCc1ccc(-c2ccc(O)c3c2C[C@H]2C[C@H]4[C@H](N(C)C)C(O)=C(C(N)=O)C(=O)[C@@]4(O)C(O)=C2C3=O)cc1 | < 4 | > 4
CN(C)[C@@H]1C(O)=C(C(N)=O)C(=O)[C@@]2(O)C(O)=C3C(=O)c4c(O)c(C(C)(C)C)cc(-c5ccc6c(c5)OCO6)c4C[C@H]3C[C@@H]12 | > 4 | > 4
COc1ccc(CN(C)C)cc1-c1cc(C(C)(C)C)c(O)c2c1C[C@H]1C[C@H]3[C@H](N(C)C)C(O)=C(C(N)=O)C(=O)[C@@]3(O)C(O)=C1C2=O | < 4 | > 4
CC(C)OC(=O)c1cccc(-c2ccc(O)c3c2C[C@H]2C[C@H]4[C@H](N(C)C)C(O)=C(C(N)=O)C(=O)[C@@]4(O)C(O)=C2C3=O)c1 | < 4 | < 4
CN(C)c1ccc(-c2cc(C(C)(C)C)c(O)c3c2C[C@H]2C[C@H]4[C@H](N(C)C)C(O)=C(C(N)=O)C(=O)[C@@]4(O)C(O)=C2C3=O)cc1 | > 4 | > 4
CN(C)c1cc(CN2CCC(C(F)F)CC2)c(O)c2c1C[C@H]1C[C@H]3[C@H](N(C)C)C(O)=C(C(N)=O)C(=O)[C@@]3(O)C(O)=C1C2=O | < 4 | < 4
CCN(CC)c1cc(CN2CCC(F)CC2)c(O)c2c1C[C@H]1C[C@H]3[C@H](N(C)C)C(O)=C(C(N)=O)C(=O)[C@@]3(O)C(O)=C1C2=O | < 4 | < 4
CC1CCN(Cc2cc(N(C)C)c3c(c2O)C(=O)C2=C(O)[C@]4(O)C(=O)C(C(N)=O)=C(O)[C@@H](N(C)C)[C@@H]4C[C@@H]2C3)CC1 | < 4 | < 4
COC1CCN(Cc2cc(N(C)C)c3c(c2O)C(=O)C2=C(O)[C@]4(O)C(=O)C(C(N)=O)=C(O)[C@@H](N(C)C)[C@@H]4C[C@@H]2C3)CC1 | < 4 | < 4
CN(CCCC(F)(F)F)Cc1cc(N(C)C)c2c(c1O)C(=O)C1=C(O)[C@]3(O)C(=O)C(C(N)=O)=C(O)[C@@H](N(C)C)[C@@H]3C[C@@H]1C2 | < 4 | < 4
CN(C)[C@@H]1C(O)=C(C(N)=O)C(=O)[C@@]2(O)C(O)=C3C(=O)c4c(O)ccc(CNCC(C)(C)C)c4C[C@H]3C[C@@H]12 | < 4 | < 4
C[C@H]1c2c(CN)cc(C(C)(C)C)c(O)c2C(=O)C2=C(O)[C@]3(O)C(=O)C(C(N)=O)=C(O)[C@@H](N(C)C)[C@@H]3[C@@H](O)[C@@H]21 | > 4 | > 4
C[C@H]1c2c(CN)ccc(O)c2C(=O)C2=C(O)[C@]3(O)C(=O)C(C(N)=O)=C(O)[C@@H](N(C)C)[C@@H]3[C@@H](O)[C@@H]21 | > 4 | > 4
C[C@H]1c2c(Br)ccc(O)c2C(=O)C2=C(O)[C@]3(O)C(=O)C(C(N)=O)=C(O)[C@@H](N(C)C)[C@@H]3[C@@H](O)[C@@H]21 | > 4 | > 4
C[C@H]1c2ccc(N)c(O)c2C(=O)C2=C(O)[C@]3(O)C(=O)C(C(N)=O)=C(O)[C@@H](N(C)C)[C@@H]3[C@@H](O)[C@@H]21 | > 4 | > 4
